Experimental findings from ChEMBL document CHEMBL4699572, “Identification of Antifungal Bisphosphocholines from Medicinal Gentiana Species” (2020) are described below.

The source made the active and inactive calls.

In general, MIC refers to the smallest concentration in the dilution series that meets the test's criterion for growth inhibition.

What all share (assay type): functional
The subject of experiment [1] is Aspergillus fumigatus. Description: Antifungal activity against Aspergillus fumigatus ATCC 204305 assessed as reduction in microbial growth after 72 hrs by CLSI based method.
The test system of experiment [2] is Cryptococcus neoformans. Description: Antifungal activity against Cryptococcus neoformans ATCC 90113 assessed as reduction in microbial growth after 72 hrs by CLSI based method.
For experiment [3], the system named is Candida albicans. Description: Antifungal activity against Candida albicans ATCC 90028 assessed as reduction in microbial growth after 18 to 24 hrs by CLSI based method. The settings on record: time hrs 18-24.
In experiment [4] the test system is Nakaseomyces glabratus. The experiment in a line: Antifungal activity against Candida glabrata ATCC 90030 assessed as reduction in microbial growth after 18 to 24 hrs by CLSI based method. The settings on record: time hrs 18-24.

Turning to `C[C@@H]1[C@H](O)[C@@H](C)/C=C/C=C/C=C/C=C/C=C/C=C/C=C/[C@H](O[C@@H]2O[C@H](C)[C@@H](O)[C@H](N)[C@@H]2O)C[C@@H]2O[C@](O)(C[C@@H](O)C[C@@H](O)[C@H](O)CC[C@@H](O)C[C@@H](O)CC(=O)O[C@H]1C)C[C@H](O)[C@H]2C(=O)O` [AMPHOTERICIN B], the MIC in experiment [1] worked out at 2.5 µg/mL; in experiment [2], 0.63 µg/mL.
For the compound `C[N+](C)(C)CCOP(=O)([O-])OCCCCCCCCCCCCCCCCCCCCCCCCOP(=O)([O-])OCC[N+](C)(C)C`, the outcome in experiment [3], in experiment [1], in experiment [2] and in experiment [4] was inactive.
With `C[N+](C)(C)CCOP(=O)([O-])OCCCCCCCCCCCCCCCCCCCCCCOP(=O)([O-])OCC[N+](C)(C)C`, the MIC was found to be 10 µg/mL in experiment [3], 1.25 µg/mL in experiment [1], 0.63 µg/mL in experiment [2] and 5 µg/mL in experiment [4].
Consider `C[N+](C)(C)CCOP(=O)([O-])OCCCCCCCCCCCCCCCCCCCCCOP(=O)([O-])OCC[N+](C)(C)C`, for which the outcome in experiment [3], in experiment [1], in experiment [2] and in experiment [4] was inactive.
`C[N+](C)(C)CCOP(=O)([O-])OCCCCCCCCCCCCCCCCCCCCCCCOP(=O)([O-])OCC[N+](C)(C)C`: the outcome in experiment [3], in experiment [1], in experiment [2] and in experiment [4] was inactive.
